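Values below derive from 48-hour exposures of cells grown in 96-well plates, with endpoints linearly interpolated between the two concentrations bracketing the appropriate inhibition level. The concentration for 50% growth inhibition is given as GI50. TGI: total growth inhibition.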
Tests used:
Assay in all cases: NCI-60 cell line screen, 48 h
[1] = tested on: K-562 leukemia
[2] = tested on: NCI-H226 lung
[3] = tested on: NCI-H522 lung
[4] = tested on: SF-295 CNS
[5] = tested on: OVCAR-4 ovarian
[6] = tested on: HCT-116 colon
[7] = tested on: LOX IMVI melanoma
[8] = tested on: OVCAR-5 ovarian
[9] = tested on: HCC-2998 colon
[10] = tested on: MCF7 breast

Compound	GI50 [1]	TGI [1]	GI50 [2]	TGI [2]	GI50 [3]	TGI [3]	GI50 [4]	TGI [4]	GI50 [5]	TGI [5]	GI50 [6]	TGI [6]	GI50 [7]	TGI [7]	GI50 [8]	TGI [8]	TGI [9]	GI50 [10]	TGI [10]	GI50 [9]
CC1=C(C(=O)Nc2ccc(Cl)c(Cl)c2)C(c2cccc(O)c2)NC(=S)N1 (centres undefined)	10.8 µM	37.3 µM	12 µM	30.8 µM	12 µM	25.2 µM	8.63 µM	17.6 µM	12.4 µM	> 50 µM	18.1 µM	> 50 µM	7.09 µM	13.8 µM	> 50 µM	> 50 µM				
N#Cc1ccccc1/C=N/O		> 65.6 µM		> 100 µM		> 100 µM		> 100 µM		> 100 µM		> 61.6 µM		> 100 µM		> 100 µM	> 100 µM			
O=C(/C=C/c1ccc2c(c1)OCO2)c1ccccc(=O)c1O		> 100 µM		> 100 µM		63.4 µM				> 100 µM		> 100 µM		> 100 µM						
[O-][N+]1=C(c2ccccc2)COc2ccccc21		> 100 µM		> 100 µM		> 100 µM		> 100 µM		> 100 µM		> 100 µM		> 100 µM		> 100 µM	> 100 µM			
Cc1ccc(S(=O)(=O)NC(=O)Nc2nc(Cl)cc(Cl)n2)cc1		> 100 µM		> 100 µM		23.9 µM		> 100 µM		> 100 µM		> 100 µM		> 100 µM		> 100 µM	> 100 µM			
C/C(CC(=O)Nc1ccc([N+](=O)[O-])cc1)=N/N=C(N)N		> 100 µM		> 100 µM		> 100 µM		> 100 µM				> 100 µM		> 100 µM		> 100 µM	> 100 µM			
C[C@H]1[C@H](C)CC[C@]2(C(=O)O)CC[C@]3(C)C(=CC[C@@H]4[C@@]5(C)CC[C@H](OC(=O)/C=C\c6ccc(O)cc6)C(C)(C)[C@@H]5CC[C@]43C)[C@H]12			4.55 µM	26.3 µM	5.58 µM	> 100 µM	3.03 µM	31.2 µM	10.6 µM	28.8 µM	1.53 µM	3.98 µM	3.86 µM	15.9 µM	12.3 µM	27 µM	14.1 µM	1.36 µM	3.63 µM	2.92 µM
Cn1c2ccccc2c(=S)c2cc(NC(=O)CCCCC(=O)Nc3ccc4c(c3)c(=S)c3ccccc3n4C)ccc21		> 100 µM		> 100 µM		> 100 µM		> 100 µM				> 100 µM		> 100 µM		> 100 µM	> 100 µM		> 100 µM	
COC(=O)c1cc(O)ccc1NC(=O)c1ccc(O)cc1		> 100 µM		> 100 µM		> 100 µM		> 100 µM		> 100 µM		> 100 µM		> 100 µM		> 100 µM	> 100 µM			
Cc1cc2c(=O)cc(-c3ccc(C(=O)O)cc3)oc2c(C(=O)O)c1C		> 100 µM		> 100 µM		> 100 µM		> 100 µM		> 100 µM		> 100 µM		> 100 µM		> 100 µM	> 100 µM			
O=C1CC23CC(=O)CC2(C1)c1ccccc1C3=O (centres undefined)		> 100 µM		> 100 µM		> 100 µM		> 100 µM				> 100 µM		> 100 µM		> 100 µM	> 100 µM			
O=C(CCc1cc(-c2ccco2)n(-c2ccc([N+](=O)[O-])cc2[N+](=O)[O-])n1)Nc1ccccc1		> 100 µM		> 100 µM		> 100 µM		> 100 µM		> 100 µM		> 100 µM				> 100 µM	> 100 µM			
C=C1CCC2C(C)(CO)C(O)CCC2(C)C1CC(O)C1=CCOC1=O (centres undefined)		> 100 µM		> 100 µM		20.3 µM		> 100 µM		> 100 µM		73.3 µM		> 100 µM		> 100 µM	40.8 µM			
COc1cc2c(/C=C3/C(=O)Nc4c3ccc3ccccc43)c(Cl)[nH]c2cc1C	< 0.005 µM	0.58 µM	0.249 µM	33.2 µM	0.0123 µM		0.00761 µM	0.0237 µM			0.0078 µM		0.00548 µM	0.0304 µM	10.2 µM	> 50 µM	< 0.005 µM	0.0342 µM	> 50 µM	< 0.005 µM
COC(C(=O)[C@@H](O)[C@@H](C)O)[C@@H]1Cc2cc3cc(O[C@H]4C[C@@H](O[C@H]5C[C@@H](O)[C@H](O)C(C)O5)[C@H](O)C(C)O4)c(C)c(O)c3c(O)c2C(=O)[C@H]1O[C@H]1C[C@@H](O[C@H]2C[C@@H](O[C@H]3C[C@@H](O)[C@@H](O)C(C)O3)[C@@H](O)C(C)O2)[C@H](O)C(C)O1 (some centres undefined)	0.312 µM	> 32.5 µM			0.058 µM	1.62 µM	0.196 µM	> 32.5 µM	0.571 µM	> 32.5 µM	0.275 µM	> 32.5 µM	0.0639 µM	0.471 µM	0.485 µM	> 32.5 µM	7.74 µM	0.0415 µM	> 32.5 µM	0.569 µM
COc1ccc(/C=C/C(=O)c2ccc(NC(=O)CSc3nnc(-c4cc(OC)c(OC)c(OC)c4)o3)cc2)cc1			2.67 µM	5.69 µM	1.55 µM	3.22 µM	1.77 µM	3.35 µM	2 µM	4.62 µM			0.32 µM	1.28 µM	1.72 µM	3.3 µM	3.65 µM	1.27 µM	3.68 µM	1.88 µM
COC(=O)/C(Cl)=C1/CC1COCc1ccccc1 (centres undefined)		49.9 µM		81.9 µM		40.5 µM		> 100 µM		84.2 µM				> 10 µM		> 100 µM	> 10 µM			
NC(CCCNCc1ccccc1O)C(=O)O (centres undefined)		> 100 µM		> 100 µM		> 100 µM		> 100 µM		> 100 µM		> 100 µM		> 100 µM		> 100 µM				
CC(=O)O[C@@H]1CC(=O)O[C@@H]2C[C@@H](CC/C(Cl)=C/C/C=C\1C)O[C@@H]2CO	> 25 µM	> 25 µM	> 25 µM	> 25 µM	> 25 µM	> 25 µM		> 25 µM			> 25 µM	> 25 µM	> 25 µM	> 25 µM	> 25 µM	> 25 µM	> 25 µM	> 25 µM	> 25 µM	> 25 µM

Compound	GI50 [1]	TGI [1]	GI50 [2]	TGI [2]	GI50 [3]	TGI [3]	GI50 [4]	TGI [4]	GI50 [5]	TGI [5]	GI50 [6]	TGI [6]	GI50 [7]	TGI [7]	GI50 [8]	TGI [8]	TGI [9]	GI50 [10]	TGI [10]	GI50 [9]
O=CNc1ccc2c(c1)Cc1cc([N+](=O)[O-])ccc1-2			27.7 µM	> 100 µM	1.85 µM	7.56 µM	0.981 µM	> 100 µM	> 65.5 µM	> 100 µM	1.38 µM	> 100 µM	2.62 µM	98.5 µM	4.2 µM	> 100 µM	> 100 µM	0.561 µM	> 100 µM	1.3 µM
O=[N+]([O-])c1ccc(C2N3CCCCC3[C@@H]3c4[nH]c5ccccc5c4CCN23)cc1 (some centres undefined)		> 100 µM						> 100 µM		> 100 µM		19.7 µM				56.5 µM				
COc1ccc(OC)c2c3c(ncc12)-c1cc2c(cc1C3)OCO2	24.6 µM	> 100 µM			52.3 µM	> 100 µM	27 µM	> 100 µM	> 100 µM	> 100 µM	0.249 µM	> 100 µM	0.104 µM	1.85 µM	> 100 µM	> 100 µM	> 100 µM			> 100 µM
CNC(=S)N/N=C(/C)CCC/C(C)=N/NC(=S)NC		> 100 µM		> 100 µM		> 100 µM		> 100 µM		29.2 µM		> 100 µM		44.2 µM		> 100 µM			0.563 µM	
C/C(CN1C(=O)c2ccccc2C1=O)=N\NS(C)(=O)=O		> 100 µM		> 100 µM		> 100 µM		> 100 µM		> 100 µM		> 100 µM				> 100 µM	> 100 µM			
O=CN/C=C/c1ccccc1O		> 31.6 µM		> 100 µM		> 100 µM		> 100 µM		> 100 µM		> 100 µM		> 100 µM		> 100 µM	> 100 µM			
COc1ccc2c(c1)N(CCC1CCCCN1C)c1ccccc1S2 (centres undefined)		18.2 µM		47.8 µM		28 µM		31.2 µM		24 µM		27.2 µM		25.9 µM		31.2 µM			24.5 µM	
O=C(Cc1nc2ccccc2s1)NC12CC3CC(CC(C3)C1)C2		> 100 µM		> 100 µM		> 100 µM		> 100 µM		> 100 µM		> 100 µM		> 100 µM			> 100 µM			
O=C(Nc1cc(Cl)cc(Cl)c1)c1ccc(NC2=C(Cl)C(=O)N(Cc3ccccc3)C2=O)cc1	2.31 µM	6.93 µM	11.5 µM	25.1 µM	7.78 µM	25.7 µM	2.49 µM	13.6 µM	18.6 µM	> 100 µM	0.743 µM	3.76 µM	2.21 µM	5.86 µM	4.68 µM	17.8 µM		1.29 µM	4.86 µM	
CCOC(=O)C1=C(N)Oc2cc(OC)ccc2C1c1ccc(F)c(F)c1 (centres undefined)			12.9 µM	32.7 µM	0.498 µM	10.2 µM	1.91 µM	15.5 µM	3.37 µM	18.6 µM	1.25 µM	16.1 µM	1.36 µM	19 µM	10.5 µM	24.1 µM	18.4 µM	0.452 µM	18.7 µM	4.14 µM
CCOCC[P+](c1ccccc1)(c1ccccc1)c1ccccc1	14.9 µM	> 100 µM	17.8 µM	> 100 µM	11.9 µM	50.9 µM	20.4 µM	78.6 µM	11.9 µM	> 100 µM	14.7 µM	> 100 µM	15.3 µM	42.3 µM	25.9 µM	> 100 µM		13.7 µM	66.4 µM	
COC(=O)[C@]1(C)CCC[C@]2(C)C3CC4OOC3(C=C4C(C)C)CCC21 (some centres undefined)		33.7 µM		35.4 µM		3.41 µM		31.3 µM		45.7 µM		29 µM		11.5 µM		41.5 µM	30.4 µM			
COc1ccc(/C=C2\CCCC3=C2N=C2SC=NN2C3c2ccc(OC)c(OC)c2)cc1OC (centres undefined)	6.09 µM	> 100 µM	18.5 µM	89.2 µM	17.9 µM	> 100 µM	32.7 µM	> 100 µM			4.79 µM	32.5 µM	16.6 µM	75.1 µM	47.7 µM	> 100 µM	> 100 µM	2.42 µM	> 100 µM	> 100 µM
CC(C)(C)C1CCN(C(=O)c2ccccc2)CC1		> 100 µM		> 100 µM		> 100 µM		> 100 µM				> 100 µM		> 100 µM		> 100 µM	> 100 µM			
C#Cc1ccc(-n2c(/C=C/c3ccc4ccccc4n3)nc3ncccc3c2=O)cc1	0.33 µM	> 100 µM	0.408 µM	1.37 µM	0.281 µM	0.779 µM	0.386 µM	1.52 µM	0.315 µM	1.81 µM	0.346 µM	1.2 µM	0.169 µM	0.657 µM			1.79 µM			0.64 µM
O=c1[nH]c(C2CCCCC2)nc2cc(Cl)ccc12		> 100 µM		> 100 µM		> 100 µM		> 100 µM		> 100 µM		> 100 µM				> 100 µM	> 100 µM			
Cc1ccccc1C(C#N)/C(=N/NC(=O)C(=O)NN)C(=O)Nc1cccc(C(F)(F)F)c1 (centres undefined)		> 100 µM		> 100 µM		> 100 µM		> 100 µM		> 100 µM		> 100 µM				> 100 µM	> 100 µM			
COC(=O)C1CCc2nnc(-c3cccnc3)n21 (centres undefined)		> 100 µM		> 100 µM		> 100 µM				> 100 µM		> 100 µM					> 100 µM			
